Test results from ChEMBL document CHEMBL5728000, “GCN2 inhibitors and uses thereof” (2020).

Molecular target: eIF-2-alpha kinase GCN2 (Homo sapiens, UniProt Q9P2K8)
Assay: Enzyme Inhibition Assay: An assay buffer containing GCN2 kinase and (RS)7 was prepared. 4.7 μL of this stock solution was placed per well of a black, low volume, 384-well microtitre plate (e.g. catalogue number 3676, Corning Inc., NY). To this was added […] of DMSO containing serial dilutions of the test compound (typical final concentrations of test compound were 0 to 8 μM). The plate was incubated for 10 minutes at 25° C. prior to the addition of 4.7 μL of ATP stock buffer to initiate the enzyme reaction. The reaction was allowed to proceed for 1 hour at 25° C., prior to the addition of 10 μL detection buffer (consisting of appropriate concentrations of ADP2 antibody and ADP Alexa633 tracer in 1× stop and detect buffer as supplied by BellBrook Labs). The reaction was left to incubate for 1 hour at 25° C., prior to measuring the fluorescence polarisation signal (mP) in each well using a PHERAstar FS reader (BMG Labtech, Germany).

eIF-2-alpha kinase GCN2, sequence (Q9P2K8 whole entry): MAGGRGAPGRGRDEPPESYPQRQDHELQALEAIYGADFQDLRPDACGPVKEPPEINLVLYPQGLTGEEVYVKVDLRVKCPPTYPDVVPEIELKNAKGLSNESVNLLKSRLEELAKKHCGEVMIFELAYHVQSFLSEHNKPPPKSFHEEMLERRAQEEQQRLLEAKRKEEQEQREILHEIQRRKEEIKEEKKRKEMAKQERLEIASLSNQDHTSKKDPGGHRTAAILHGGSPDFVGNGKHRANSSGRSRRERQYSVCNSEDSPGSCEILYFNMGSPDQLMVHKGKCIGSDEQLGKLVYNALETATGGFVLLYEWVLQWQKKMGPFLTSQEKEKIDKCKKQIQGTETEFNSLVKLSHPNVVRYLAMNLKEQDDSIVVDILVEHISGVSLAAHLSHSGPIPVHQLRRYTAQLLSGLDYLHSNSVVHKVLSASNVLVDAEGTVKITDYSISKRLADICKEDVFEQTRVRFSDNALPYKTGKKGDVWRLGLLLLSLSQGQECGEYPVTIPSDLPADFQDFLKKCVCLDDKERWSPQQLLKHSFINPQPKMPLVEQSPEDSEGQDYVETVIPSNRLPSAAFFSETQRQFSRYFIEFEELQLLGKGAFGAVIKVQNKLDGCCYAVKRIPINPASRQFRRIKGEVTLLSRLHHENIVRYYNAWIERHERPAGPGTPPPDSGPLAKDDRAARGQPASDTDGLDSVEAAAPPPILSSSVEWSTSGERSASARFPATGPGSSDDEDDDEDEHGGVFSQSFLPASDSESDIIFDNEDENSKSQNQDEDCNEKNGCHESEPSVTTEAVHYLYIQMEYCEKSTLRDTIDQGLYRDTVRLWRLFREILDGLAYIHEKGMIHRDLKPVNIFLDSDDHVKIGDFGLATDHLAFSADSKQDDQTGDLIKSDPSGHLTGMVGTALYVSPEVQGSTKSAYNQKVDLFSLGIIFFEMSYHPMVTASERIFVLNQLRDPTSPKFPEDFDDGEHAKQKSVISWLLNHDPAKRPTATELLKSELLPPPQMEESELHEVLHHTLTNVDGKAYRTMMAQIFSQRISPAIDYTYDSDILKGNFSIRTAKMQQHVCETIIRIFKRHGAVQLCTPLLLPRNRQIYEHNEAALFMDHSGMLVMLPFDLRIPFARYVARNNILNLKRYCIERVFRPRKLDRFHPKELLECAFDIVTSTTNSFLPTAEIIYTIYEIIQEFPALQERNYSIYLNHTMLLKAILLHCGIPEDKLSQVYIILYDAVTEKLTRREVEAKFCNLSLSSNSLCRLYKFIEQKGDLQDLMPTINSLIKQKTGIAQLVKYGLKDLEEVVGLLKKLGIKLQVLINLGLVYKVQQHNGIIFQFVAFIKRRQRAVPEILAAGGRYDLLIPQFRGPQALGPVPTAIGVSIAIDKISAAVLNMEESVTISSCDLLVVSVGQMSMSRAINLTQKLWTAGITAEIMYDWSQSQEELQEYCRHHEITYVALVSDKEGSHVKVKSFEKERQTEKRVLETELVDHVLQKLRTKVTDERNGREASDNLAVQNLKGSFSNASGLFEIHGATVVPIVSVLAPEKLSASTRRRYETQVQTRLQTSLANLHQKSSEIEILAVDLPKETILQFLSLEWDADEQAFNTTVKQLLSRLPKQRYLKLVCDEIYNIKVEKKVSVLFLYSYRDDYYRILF

Cc1[nH]ncc1[C@@H]1CN(c2nccc(-c3cnc4ccc(C(F)(F)F)cn34)n2)C[C@H](C)O1
Ki: < 10 nM

C[C@H]1C[C@@H](c2cn[nH]c2)CN(c2nccc(-c3cnc4ccc(C(F)(F)F)cn34)n2)C1 (mixture of isomers)
Ki: < 10 nM

Cc1[nH]ncc1[C@H]1CN(c2nccc(-c3cnc4ccc(C(F)(F)F)cn34)n2)C[C@@H](C)O1 (relative stereo)
Ki: < 10 nM

Cc1n[nH]cc1[C@H]1CN(c2ccnc(-c3cnc4ccc(C(F)(F)F)cn34)n2)C[C@@H](C)O1 (relative stereo)
Ki: < 10 nM

C[C@@H]1CN(c2nccc(-c3cnc4ccc(C(F)(F)F)cn34)n2)C[C@H](c2cn[nH]c2)O1 (relative stereo)
Ki: < 10 nM
